From ChEMBL document CHEMBL1201862, “PubChem BioAssay data set” (2004) come the findings set out here.

Among the test systems are HOP-92; SK-MEL-2; SNB-78; SR; UACC-62; CCRF-CEM; MDA-MB-231; HL-60; DMS-273; NCI-H460; A549; SN12C; LOX IMVI; EKVX; HT-29; SF-539; SK-OV-3; MOLT-4; IGROV-1; HCC 2998.
What all share (assay): growth of human tumour cells (NCI), 48 h

Several values for one entry are separate records, joined by “and”; a condition that tells them apart may be missing. Equal entries are not always repeated. Structures can show the parent of a compound that is named as a salt.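 Test compounds were applied to cells in 96-well plates for 48 hours at 5 doses. At the GI50, growth is halved.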 Activity calls are given as the source filed them. Rule as the data show it: active = GI50 up to about 1.1 µM and inactive = higher. A value given as a limit tells only on which side of the number the result lay.

With `CN(C)CCCN1c2ccccc2Sc2ccc(C(F)(F)F)cc21` [TRIFLUPROMAZINE HYDROCHLORIDE], the GI50 in the assay on HOP-92 is 12.3 µM (inactive); with SK-MEL-2 it was 16 µM (inactive); in the assay on SNB-78, 15.7 µM (inactive); in the assay with SR, 18.1 µM (inactive) and 17.6 µM (inactive); in the assay on UACC-62, 16.6 µM (inactive) and 16.8 µM (inactive); in the assay with CCRF-CEM it was 20.3 µM (inactive) and 16.1 µM (inactive). In addition, the GI50 is 12.9 µM (inactive) with MDA-MB-231; 15.7 µM (inactive) and 12.7 µM (inactive) with HL-60; 14.7 µM (inactive) with DMS-273; 16.4 µM (inactive) and 15 µM (inactive) in the assay with NCI-H460; 17 µM (inactive) and 16.9 µM (inactive) in the assay with A549; 16 µM (inactive) and 17.3 µM (inactive) in the assay with SN12C. Besides, the GI50 is 15.5 µM (inactive) and 13.9 µM (inactive) in the assay on LOX IMVI; 17.6 µM (inactive) and 15.7 µM (inactive) in the assay on EKVX; 11.4 µM (inactive) with HT-29; 15.2 µM (inactive) and 19.1 µM (inactive) in the assay with SF-539; 18.6 µM (inactive) and 16.6 µM (inactive) with SK-OV-3; 17.7 µM (inactive) in the assay on MOLT-4. The GI50 with IGROV-1 is 15.9 µM (inactive) and 15.6 µM (inactive).

For the compound `C=C1C(=O)C23C(O)C1CCC2C12CO[C@]3(O)[C@@H](O)C1C(C)(C)CCC2O` (stereo partly drawn), the GI50 in the assay with HOP-92 was 3.49 µM (inactive); in the assay on SK-MEL-2, 15.7 µM (inactive); in the assay with SNB-78, 6.55 µM (inactive); with SR, 4.31 µM (inactive); in the assay on UACC-62 it was 11.9 µM (inactive); with HCC 2998 it was 16.1 µM (inactive). Besides, the GI50 with CCRF-CEM is 1.63 µM (inactive); with HL-60, 5.01 µM (inactive); in the assay on DMS-273, 14.7 µM (inactive); in the assay with NCI-H460 it was 11.2 µM (inactive); in the assay with A549, 18.5 µM (inactive); with SN12C, 14.3 µM (inactive). Moreover, the GI50 in the assay on LOX IMVI was 16.5 µM (inactive); in the assay with EKVX, 15 µM (inactive); in the assay on HT-29, 13.5 µM (inactive); with SF-539, 14.7 µM (inactive); in the assay with SK-OV-3, 20.3 µM (inactive); in the assay with MOLT-4, 3.87 µM (inactive). The GI50 in the assay with IGROV-1 is 15.1 µM (inactive).

Consider `CCOCN/C(N)=N\C#N`, for which the GI50 with HOP-92 is > 100 µM (inactive); with SK-MEL-2 it was > 100 µM (inactive); in the assay with SNB-78, > 100 µM (inactive); with SR it was 36.6 µM (inactive); with UACC-62, > 100 µM (inactive); in the assay with HCC 2998, > 100 µM (inactive). Moreover, the GI50 in the assay on CCRF-CEM, in the assay on HL-60, in the assay on DMS-273, in the assay with NCI-H460, in the assay with A549 and in the assay on SN12C was > 100 µM (inactive) in each case. In addition, the GI50 in the assay with LOX IMVI was 12.1 µM (inactive); in the assay with EKVX it was > 100 µM (inactive); in the assay with HT-29, > 100 µM (inactive); in the assay with SF-539, > 100 µM (inactive); in the assay with SK-OV-3, > 100 µM (inactive); in the assay on MOLT-4, > 100 µM (inactive). Also, the GI50 in the assay with IGROV-1 was > 100 µM (inactive).

Turning to `O=C(CCc1nnc2s/c(=C\c3ccc4c(c3)OCO4)c(=O)n12)Nc1cc(Cl)ccc1Cl`, the GI50 in the assay with HOP-92, with SK-MEL-2, with SNB-78, with SR, in the assay on UACC-62 and in the assay on HCC 2998 was > 100 µM (inactive) throughout. Further, the GI50 in the assay with CCRF-CEM is > 100 µM (inactive); in the assay with HL-60, > 55.2 µM (inactive); with DMS-273, > 55.1 µM (inactive); with NCI-H460, > 100 µM (inactive); with A549 it was > 100 µM (inactive); in the assay on SN12C, > 100 µM (inactive). The GI50 with LOX IMVI, with EKVX, in the assay on HT-29, with SF-539, in the assay on SK-OV-3 and in the assay on MOLT-4 was > 100 µM (inactive) throughout. The GI50 in the assay on IGROV-1 was > 100 µM (inactive).

As for `CS(=O)(=O)OCCN(CCOS(C)(=O)=O)c1ccc(/C=N/N=c2/nc[nH]c3nc[nH]c23)cc1`, the GI50 is 16.9 µM (inactive) with HOP-92; 20.4 µM (inactive) in the assay with SK-MEL-2; 24.2 µM (inactive) with SNB-78; 4.57 µM (inactive) in the assay with SR; 12.9 µM (inactive) in the assay with UACC-62; 19.4 µM (inactive) in the assay on HCC 2998. Besides, the GI50 with CCRF-CEM was 8.09 µM (inactive); in the assay on HL-60, 6.04 µM (inactive); in the assay with DMS-273, 14.9 µM (inactive); with NCI-H460, 7.76 µM (inactive); in the assay with A549, 26.2 µM (inactive); in the assay on SN12C it was 35.2 µM (inactive). The GI50 in the assay with LOX IMVI was 15.1 µM (inactive); with EKVX it was 33.2 µM (inactive); in the assay with HT-29 it was 17.8 µM (inactive); with SF-539, 18.3 µM (inactive); with SK-OV-3, 26.2 µM (inactive); with MOLT-4 it was 4.84 µM (inactive). Also, the GI50 in the assay with IGROV-1 is 19.1 µM (inactive).

Turning to `O=C1c2cc(CCl)sc2C(=O)c2ccsc21`, the GI50 with HOP-92 was 0.427 µM (active); in the assay on SK-MEL-2, 0.153 µM (active); in the assay on SNB-78 it was 0.292 µM (active); in the assay on SR it was 0.142 µM (active); with UACC-62, 0.178 µM (active); with HCC 2998, 1.67 µM (inactive). In addition, the GI50 was 0.173 µM (active) in the assay with CCRF-CEM; 0.232 µM (active) with MDA-MB-231; 0.0559 µM (active) in the assay on HL-60; 0.306 µM (active) with DMS-273; 1.31 µM (inactive) in the assay on NCI-H460; 0.199 µM (active) in the assay with A549. Besides, the GI50 in the assay on SN12C was 0.277 µM (active); with LOX IMVI, < 0.0248 µM (active); with EKVX, 1.24 µM (inactive); in the assay with HT-29, 1.16 µM (inactive); with SF-539, 0.228 µM (active); in the assay on SK-OV-3, 1.85 µM (inactive). Moreover, the results for the GI50 in the assay with MOLT-4 and with IGROV-1 were 0.179 µM (active) and 1.49 µM (inactive), respectively.

As to `CNC(=O)NCCCCC(NC(=O)OCc1ccccc1)C(=O)OCc1ccccc1` (stereo not drawn), the GI50 with HOP-92 is 36 µM (inactive); in the assay on SK-MEL-2, 22 µM (inactive); in the assay on SNB-78, 25.4 µM (inactive); in the assay with SR it was 27.4 µM (inactive); in the assay on UACC-62, 21.5 µM (inactive); with HCC 2998, 20.3 µM (inactive). Further, the GI50 is 17.9 µM (inactive) in the assay on CCRF-CEM; 16.8 µM (inactive) in the assay with HL-60; 48.8 µM (inactive) in the assay with DMS-273; 31.7 µM (inactive) in the assay on NCI-H460; 31.6 µM (inactive) with A549; 24.2 µM (inactive) in the assay on SN12C. For the same compound, the GI50 with LOX IMVI is 16.7 µM (inactive); in the assay with EKVX, 98.9 µM (inactive); in the assay on HT-29, 71.4 µM (inactive); in the assay on SF-539, 19 µM (inactive); in the assay with SK-OV-3, > 100 µM (inactive); in the assay with MOLT-4, 20.8 µM (inactive). Further, the GI50 in the assay with IGROV-1 is 28.1 µM (inactive).

As to `C/N=C(/NC)N(C)c1nc(=[N+](C)C)ss1.[O-][Cl+3]([O-])([O-])[O-]`, the GI50 with HOP-92 was 75 µM (inactive); with SK-MEL-2, > 100 µM (inactive); with SNB-78, 82.8 µM (inactive); in the assay on SR, 55.5 µM (inactive); in the assay on UACC-62 it was > 100 µM (inactive); in the assay with HCC 2998, > 100 µM (inactive). The GI50 is 61.9 µM (inactive) with CCRF-CEM; 46 µM (inactive) in the assay on HL-60; 36.2 µM (inactive) in the assay with DMS-273; > 100 µM (inactive) in the assay on NCI-H460; > 100 µM (inactive) with A549; > 100 µM (inactive) with SN12C. Moreover, the GI50 is 78.9 µM (inactive) in the assay on LOX IMVI; > 100 µM (inactive) with EKVX; > 100 µM (inactive) in the assay on HT-29; > 100 µM (inactive) with SF-539; > 100 µM (inactive) in the assay with SK-OV-3; 39.3 µM (inactive) in the assay with MOLT-4. Moreover, the GI50 in the assay with IGROV-1 is > 100 µM (inactive).
